Source: patent US20220152117A1, “METHODS OF PROMOTING CELLULAR MATURATION WITH AMPK ACTIVATORS” (UNIVERSITY OF WASHINGTON, priority 2019, published 2022)
“And” between values parts separate entries of the source, which are not always exact repeats. Equal values may be shown once. “Also recorded” adds a separate entry of the source.

Columns and labels:
Type in all cases: cell-based, human
hPSC-CMs [1] = test: Quantitative RT-PCR gene expression in cardiomyocytes
Description: Total RNA was isolated using the Qiagen RNeasy Kit™, and mRNA was reverse transcribed using the Superscript™ III first strand cDNA synthesis kit (Invitrogen®). All primers were purchased from Real Time Primers, and qRT-PCR was performed using SYBR™ green chemistry and an ABI 7900HT instrument or TAQMAN™ with BIORad CXF384™. Samples were normalized using hypoxanthine-guanine phosphoribosylthransferase (HPRT) as a housekeeping gene. The sequences of the primers are listed below in Table 1. The primers used for titin isoforms were adapted from^29. All Q-RT-PCR assays were performed in triplicate on control and experimental groups and firstly normalized to hHPRT level and then normalized against control cardiomyocytes. N=4-5 independent experiments.

hiPSC-derived neurons [2] = test: mtDNA:nDNA ratio by quantitative PCR in neurons; details: two weeks of treatment with AICAR every third day
hPSC-CMs [3] = test: Mitochondrial oxidation of glucose, Seahorse XF96 maximum respiration capacity; details: AICAR treated vs control
Description: The Seahorse XF96 extracellular flux Analyzer™ was used to assess mitochondria function with glucose as substrate. Cell preparation and treatment for this assay were the same as the palmitate assay. On the assay day, culture medium was changed to base media (unbuffered DMEM, Sigma D5030, supplemented with 2 mM glutamine, 25 mM glucose, 1 mM pyruvate) 1 hour before the assay and for the duration of the measurement. Selective inhibitors were injected during the measurements to achieve final concentrations of oligomycin at 2.5 μM, FCCP at 1 μM, rotenone at 2.5 μM, and antimycin A at 2.5 μM. The OCR values were further normalized to the number of cells present in each well, quantified by Hoechst staining. Maximal OCR was the OCR difference between uncoupler FCCP and ATPase inhibitor oligomycin. Due to variations in the absolute magnitude of OCR measurements in different experiments, the relative AICAR treated/untreated control levels were used to compare and summarize independent biological replicates (N=6).

hiPSC-derived neurons [4] = test: Quantitative RT-PCR gene expression in neurons
hPSC-CMs [5] = test: Mitochondrial oxidation of palmitate, Seahorse XF96 extracellular flux palmitate-albumin assay; details: 1 mM AICAR for 2 weeks
Description: The Seahorse XF96 extracellular flux Analyzer™ was used to assess the fatty acid oxidation capacity of the hPSC-CMs. XF96 plates were pre-treated with fibronectin at a concentration of 1 μg/cm^2. At around 20 days after induction of differentiation, the cardiomyocytes were seeded onto the XF96 plates at a density of 30,000 cells per well (2,500/mm^2). The cells were treated with 1 mM AICAR for two weeks before the palmitate-albumin assay. An hour prior to performing this assay, culture medium was exchanged for basal media (unbuffered DMEM, Sigma D5030, supplemented with 2 mM glutamine, 1 mM pyruvate, 25 mM glucose, and 400 μM carnitine). Palmitate-albumin complexes were made following the Seahorse Bioscience protocol. Substrates were injected during the measurements to achieve two spike concentrations of palmitate-albumin at 200 μM each. The oxygen consumption rates (OCR values) were further normalized to the number of cells present in each well, quantified by staining with Hoechst 33342 (Sigma-Aldrich) as measured using fluorescence at 355 nm excitation and 460 nm emission. The highest OCR values induced by palmitate-albumin were used for statistics. Due to variations in the absolute magnitude of OCR measurements in different experiments, the relative AICAR treated/untreated control levels were used to compare and summarize independent biological replicates (N=7).

[6] = test system: cardiomyocytes from ARVD/C hiPSCs; test: TUNEL cell viability assay, cardiomyocytes from mutant PKP2 (ARVD/C) hiPSCs; details: two weeks treatment, TUNEL with α-actinin co-stain
Description: The normal and mutant Plakophilin 2 (PKP2) cells were generated as described previously^37. Induced pluripotent cells were cultured with E8 medium in Matrigel® coated plates. Cardiomyocytes were obtained using a protocol based on Lian et al^38 that involves Wnt agonist CHIR 99021 in the early stages of differentiation followed by the Wnt antagonist IWP2 under monolayer condition. Before Day 7, cells were cultured in RPMI plus B27 without insulin while on Day 7 and afterwards, EB media (KO-DMEM with 2% FBS, 1 mM NEAAs, 1× GlutaMAX, 1 mM mercaptoethanol, and penicillin/streptomycin) was used. At 30 days of differentiation, beating EBs were treated with three factors (3F) (50 μg/ml insulin, 0.5 μM dexamethasone, and 0.25 mM IBMX) or five factors (5F) (3F plus PPAR-γ agonists 5 μM rosiglitazone and 200 μM indomethacin) media as described earlier or treated with 1 mM AICAR or AICAR plus rosiglitazone and indomethacin for two weeks. TUNEL staining with In Situ Cell Death Detection Kit TMR Red™ (Roche®) was used to assess cell viability after conducting different treatment. TUNEL staining was co-stained with anti-α-actinin antibody so that cardiomyocyte-specific apoptosis could be assessed.

hiPSC-CMs = test: mtDNA to nDNA ratio by q-PCR in cardiomyocytes; details: relative to control hiPSC-CMs
Description: Mitochondrial DNA (mtDNA) to nuclear DNA (nDNA) ratio was estimated by q-PCR. For this purpose, a mtDNA fragment within the NADH dehydrogenase 1 (ND 1) gene and a region of the nuclear DNA-encoded lipoprotein lipase gene (LPL) were amplified. The primer sequences for ND 1 and LPL were adapted from^30. Total DNA was extracted using Qiagen DNeasy Kit™.

[7] = AICAR treated vs control hPSC-CMs
[8] = hPSC-CMs, normalized to HPRT then to control cells
[9] = normalized to HPRT then to control cells

## NC(=O)c1ncn([C@@H]2O[C@H](CO)[C@@H](O)[C@H]2O)c1N [AICAR, 5-amino-4-imidazolecarboxamide riboside-1-β-D-ribofuranoside]
hPSC-CMs [1]; [7]
  cTnI expression levels: upregulated
  ssTnI to cTnI ratio: significantly downregulated
  titin N2B expression level: significantly upregulated
  titin N2BA expression level: did not change
  titin N2BA to N2B ratio: significantly down-regulated
  total titin expression level: did not change
hPSC-CMs [1]; RUES2 hESC-derived cardiomyocytes
  FABP and PDK4 gene expression levels in cardiomyocytes derived from RUES2 hESCs: same trend of changes
hPSC-CMs [1]; [8]
  fatty acid binding protein (FABP) expression level: significant increase
  pyruvate dehydrogenase kinase-4 (PDK4) expression level: significant increase
hPSC-CMs [1]; [9]
  PGC-1α mRNA level: 2.07±0.31
  estrogen-related receptor α (ERR α) mRNA level: 1.50±0.12
  mitochondrial transcription factor A (TFAM) mRNA level: 2.03±0.11
  peroxisome proliferator activated receptor alpha (PPARα) mRNA level: 1.78±0.22
hPSC-CMs [1]; vs. control
  KCNJ2 expression: 1.71±0.17 fold
  SCN5a expression: 1.58±0.2 fold
  α-myosin heavy chain (α-MHC) expression: 2.64±0.51 fold
hiPSC-derived neurons [2]
  mtDNA/nDNA ratio in neurons: increase
hPSC-CMs [3]
  maximum mitochondrial respiration capacity: significantly increased
hiPSC-derived neurons [4]; compared to control neurons
  NeuN mRNA in neurons: significant increase
hiPSC-derived neurons [4]; [9]
  PPARα expression in neurons: increased
  TFAM expression in neurons: increased
hiPSC-derived neurons [4]; two weeks of treatment with AICAR every third day
  PDK4 expression in neurons: increase
hPSC-CMs [5]
  increase in oxygen consumption rate (OCR) upon palmitate-albumin introduction: 2.32±0.12 fold and ~2.3 fold
[6]
  apoptosis / cell death in cardiomyocytes from ARVD/C (mutant PKP2) hiPSCs: induced significant apoptosis; also recorded: induced significant cell death
hiPSC-CMs
  increase in the ratio of mtDNA to nDNA: 55%
